Source: US20120302566A1, “INDANYLOXYDIHYDROBENZOFURANYLACETIC ACIDS” (BOEHRINGER INGELHEIM INTERNATIONAL GMBH, priority 2010, published 2012)
pEC50: −log10 of the molar value.

These molecules were tested against human GPR40 receptor (Homo sapiens, UniProt O14842) (assay: IP1 accumulation measurements using the IPOne assay system). Details: IP1 accumulation (IPOne HTRF), 1 hour stimulation; 1321N1 cells stably expressing human GPR40; read-out: EC50 values on GPR40 determined as described in (B).
Assay type: cell-based
Description: (B) IP1 accumulation measurements using the IPOne assay system—1321N1 cells stably expressing human GPR40 receptor (Euroscreen, Belgium) were seeded 24 h before the assay in black clear-bottom collagen-coated 384-well plates in culture medium containing 10% FCS, 1% Na-Pyruvate and 400 μg/mL G418. IP1 is assayed according to the Manufacturer's description (Cisbio Bioassays, France). In brief, the assay is started by substitution of the culture medium by stimulation buffer (Hepes 10 mM, CaCl2 1 mM, MgCl2 0.5 mM, KCl 4.2 mM, NaCl 146 mM and glucose 5.5 mM, pH 7.4) without LiCl. Cells are stimulated for 1 hour at 37°, 10% CO2 by addition of the compounds that were diluted in stimulation buffer containing LiCl yielding a final LiCl concentration of 50 mM. Assays are stopped by adding HTRF-conjugates (IP1-d2 and Anti-IP1 cryptate Tb) and lysis buffer, provided by the manufacturer. After an incubation time of 1 hour at room temperature plates are measured using an EnVision™, Perkin Elmer.

Chain of human GPR40 receptor (O14842 whole entry): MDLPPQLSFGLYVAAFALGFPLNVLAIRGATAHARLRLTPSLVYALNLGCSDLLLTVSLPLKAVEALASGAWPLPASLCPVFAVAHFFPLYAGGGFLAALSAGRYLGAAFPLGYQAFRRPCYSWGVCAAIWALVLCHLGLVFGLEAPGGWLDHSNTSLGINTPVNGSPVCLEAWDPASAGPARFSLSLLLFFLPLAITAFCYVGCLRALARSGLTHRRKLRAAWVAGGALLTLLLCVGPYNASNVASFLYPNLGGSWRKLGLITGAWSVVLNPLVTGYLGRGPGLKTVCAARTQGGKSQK

Structure (SMILES)	pEC50
CC(O)(CC1CCOCC1)c1cccc2c1CC[C@H]2Oc1ccc2c(c1)OC[C@H]2CC(=O)O (stereo partly drawn) [Example 83, ((S)-6-{(R)-4-[1-Hydroxy-1-methyl-2-(tetrahydro-pyran-4-yl)-ethyl]-indan-1-yloxy}-2,3-dihydro-benzofuran-3-yl)-acetic acid]	6.41
CC(C)c1ccccc1-c1cccc2c1CC[C@H]2Oc1ccc2c(c1)OC[C@H]2CC(=O)O [Example 35, {(S)-6-[(R)-4-(2-Isopropyl-phenyl)-indan-1-yloxy]-2,3-dihydro-benzofuran-3-yl}-acetic acid]	8.40
CC(C)(C#N)c1cccc2c1CC[C@H]2Oc1ccc2c(c1)OC[C@H]2CC(=O)O [Example 97, {(S)-6-[(R)-4-(Cyano-dimethyl-methyl)-indan-1-yloxy]-2,3-dihydro-benzofuran-3-yl}-acetic acid]	6.77
Cc1cccc(C)c1-c1ccc2c(c1)CC[C@H]2Oc1ccc2c(c1)OC[C@H]2CC(=O)O [Example 52, {(S)-6-[(R)-5-(2,6-Dimethyl-phenyl)-indan-1-yloxy]-2,3-dihydro-benzofuran-3-yl}-acetic acid]	6.95
Cc1cn(C)c(=O)c(C)c1-c1cccc2c1CC[C@H]2Oc1ccc2c(c1)OC[C@H]2CC(=O)O [Example 61, {(S)-6-[(R)-4-(1,3,5-Trimethyl-2-oxo-1,2-dihydro-pyridin-4-yl)-indan-1-yloxy]-2,3-dihydro-benzofuran-3-yl}-acetic acid]	6.81
CO[C@@H](c1cccc2c1CC[C@H]2Oc1ccc2c(c1)OC[C@H]2CC(=O)O)C(C)(C)C (single isomer, unassigned) [Example 28, {(S)-6-[(R)-4-((R)*-1-Methoxy-2,2-dimethyl-propyl)-indan-1-yloxy]-2,3-dihydro-benzofuran-3-yl}-acetic acid]	7.60
O=C(O)C[C@@H]1COc2cc(O[C@@H]3CCc4c(C5=CCCCC56CCOCC6)cccc43)ccc21 [Example 56, {(S)-6-[(R)-4-(3-Oxa-spiro[5.5]undec-7-en-7-yl)-indan-1-yloxy]-2,3-dihydro-benzofuran-3-yl}-acetic acid]	6.91
Cc1cc2c(c(C(F)(F)F)c1)CC[C@H]2Oc1ccc2c(c1)OC[C@H]2CC(=O)O [Example 26, {(S)-6-[(R)-6-Methyl-4-trifluoromethyl-indan-1-yloxy]-2,3-dihydro-benzofuran-3-yl}-acetic acid]	7.72
O=C(O)C[C@@H]1COc2cc(O[C@@H]3CCc4c3cccc4N3CCOCC3)ccc21 [Example 65, {(S)-6-[(R)-4-Morpholin-4-yl-indan-1-yloxy]-2,3-dihydro-benzofuran-3-yl}-acetic acid]	5.73
Cc1ncnc(C)c1-c1cccc2c1CC[C@H]2Oc1ccc2c(c1)OC[C@H]2CC(=O)O [Example 86, {(S)-6-[(R)-4-(4,6-Dimethyl-pyrimidin-5-yl)-indan-1-yloxy]-2,3-dihydro-benzofuran-3-yl}-acetic acid]	6.38
O=C(O)C[C@@H]1COc2cc(O[C@@H]3CCc4c(-c5ccccc5C(F)(F)C(F)(F)F)cccc43)ccc21 [Example 94, {(S)-6-[(R)-4-(2-Pentafluoroethyl-phenyl)-indan-1-yloxy]-2,3-dihydro-benzofuran-3-yl}-acetic acid]	8.15
Cc1nn(C)c(C)c1-c1cccc2c1CC[C@H]2Oc1ccc2c(c1)OC[C@H]2CC(=O)O [Example 49, {(S)-6-[(R)-4-(1,3,5-Trimethyl-1H-pyrazol-4-yl)-indan-1-yloxy]-2,3-dihydro-benzofuran-3-yl}-acetic acid]	5.72
CC(C)c1cccc2c1CC[C@H]2Oc1ccc2c(c1)OC[C@H]2CC(=O)O [Example 32, {(S)-6-[(R)-4-Isopropyl-indan-1-yloxy]-2,3-dihydro-benzofuran-3-yl}-acetic acid]	7.01
CC(C)(C)c1cccc2c1CC[C@H]2Oc1ccc2c(c1)OC[C@H]2CC(=O)O [Example 96, {(S)-6-[(R)-4-tert-Butyl-indan-1-yloxy]-2,3-dihydro-benzofuran-3-yl}-acetic acid]	7.44
Cc1ccc2c(c1C(F)(F)F)CC[C@H]2Oc1ccc2c(c1)OC[C@H]2CC(=O)O [Example 36, {(S)-6-[(R)-5-Methyl-4-trifluoromethyl-indan-1-yloxy]-2,3-dihydro-benzofuran-3-yl}-acetic acid]	7.72
O=C(O)C[C@@H]1COc2cc(O[C@@H]3CCc4c(C(F)(F)F)ccc(F)c43)ccc21 [Example 24, {(S)-6-[(R)-7-Fluoro-4-trifluoromethyl-indan-1-yloxy]-2,3-dihydro-benzofuran-3-yl}-acetic acid]	7.46

Structure (SMILES)	pEC50
CC1(C)CCC=C1c1cccc2c1CC[C@H]2Oc1ccc2c(c1)OC[C@H]2CC(=O)O [Example 40, {(S)-6-[(R)-4-(5,5-Dimethyl-cyclopent-1-enyl)-indan-1-yloxy]-2,3-dihydro-benzofuran-3-yl}-acetic acid]	7.89
CC(O)(c1cccc2c1CC[C@H]2Oc1ccc2c(c1)OC[C@H]2CC(=O)O)C1CCOCC1 (stereo partly drawn) [Example 81, ((S)-6-{(R)-4-[1-Hydroxy-1-(tetrahydro-pyran-4-yl)-ethyl]-indan-1-yloxy}-2,3-dihydro-benzofuran-3-yl)-acetic acid]	5.81
COc1ncc(C)c(-c2cccc3c2CC[C@H]3Oc2ccc3c(c2)OC[C@H]3CC(=O)O)c1C [Example 60, {(S)-6-[(R)-4-(2-Methoxy-3,5-dimethyl-pyridin-4-yl)-indan-1-yloxy]-2,3-dihydro-benzofuran-3-yl}-acetic acid]	7.29
COC(c1cccc2c1CC[C@H]2Oc1ccc2c(c1)OC[C@H]2CC(=O)O)C(C)(C)C (mixture of isomers) [Example 27, {(S)-6-[(R)-4-(1-Methoxy-2,2-dimethyl-propyl)-indan-1-yloxy]-2,3-dihydro-benzofuran-3-yl}-acetic acid]	7.64
Cc1ccc(O)cc1-c1cccc2c1CC[C@H]2Oc1ccc2c(c1)OC[C@H]2CC(=O)O [Example 72, {(S)-6-[(R)-4-(5-Hydroxy-2-methyl-phenyl)-indan-1-yloxy]-2,3-dihydro-benzofuran-3-yl}-acetic acid]	7.01
Cc1ccc(C(F)(F)F)c2c1[C@H](Oc1ccc3c(c1)OC[C@H]3CC(=O)O)CC2 [Example 30, {(S)-6-[(R)-7-Methyl-4-trifluoromethyl-indan-1-yloxy]-2,3-dihydro-benzofuran-3-yl}-acetic acid]	6.52
O=C(O)C[C@@H]1COc2cc(O[C@@H]3CCc4cccc(C(F)(F)F)c43)ccc21 [Example 23, {(S)-6-[(R)-7-Trifluoromethyl-indan-1-yloxy]-2,3-dihydro-benzofuran-3-yl}-acetic acid]	5.04
Cc1c(O[C@@H]2CCc3c2cccc3C(F)(F)F)ccc2c1OCC2CC(=O)O (mixture of isomers) [Example 105, {7-Methyl-6-[(R)-4-trifluoromethyl-indan-1-yloxy]-2,3-dihydro-benzofuran-3-yl}-acetic acid]	5.37
O=C(O)C[C@@H]1COc2cc(O[C@@H]3CCc4c3ccc(C(F)(F)F)c4Cl)ccc21 [Example 98, {(S)-6-[(R)-4-Chloro-5-trifluoromethyl-indan-1-yloxy]-2,3-dihydro-benzofuran-3-yl}-acetic acid]	7.34
CC(C)c1ccccc1-c1ccc2c(c1)CC[C@H]2Oc1ccc2c(c1)OC[C@H]2CC(=O)O [Example 54, {(S)-6-[(R)-5-(2-Isopropyl-phenyl)-indan-1-yloxy]-2,3-dihydro-benzofuran-3-yl}-acetic acid]	6.59
CC1OC(c2cccc3c2CC[C@H]3Oc2ccc3c(c2)OC[C@H]3CC(=O)O)C1(C)C (single isomer, unassigned) [Example 41]	6.49
COc1ccc(C(F)(F)F)c(-c2cccc3c2CC[C@H]3Oc2ccc3c(c2)OC[C@H]3CC(=O)O)n1 [Example 91, {(S)-6-[(R)-4-(6-Methoxy-3-trifluoromethyl-pyridin-2-yl)-indan-1-yloxy]-2,3-dihydro-benzofuran-3-yl}-acetic acid]	7.16
O=C(O)C[C@@H]1COc2cc(O[C@H]3CCc4ccc(Br)cc43)ccc21 [Example 55, {(S)-6-[(S)-6-Bromo-indan-1-yloxy]-2,3-dihydro-benzofuran-3-yl}-acetic acid]	5.54
COC(C)(c1cccc2c1CC[C@H]2Oc1ccc2c(c1)OC[C@H]2CC(=O)O)C(C)(C)C (stereo partly drawn) [Example 78, {(S)-6-[(R)-4-(1-Methoxy-1,2,2-trimethyl-propyl)-indan-1-yloxy]-2,3-dihydro-benzofuran-3-yl}-acetic acid]	7.12
Cn1ccnc1-c1cccc2c1CC[C@H]2Oc1ccc2c(c1)OC[C@H]2CC(=O)O [Example 57, {(S)-6-[(R)-4-(1-methyl-1H-imidazol-2-yl)-indan-1-yloxy]-2,3-dihydro-benzofuran-3-yl}-acetic acid]	5.05
CC1=C(c2cccc3c2CC[C@H]3Oc2ccc3c(c2)OC[C@H]3CC(=O)O)C(C)(C)CCC1 [Example 48, {(S)-6-[(R)-4-(2,6,6-Trimethyl-cyclohex-1-enyl)-indan-1-yloxy]-2,3-dihydro-benzofuran-3-yl}-acetic acid]	7.80
